Laboratory results as given in ChEMBL document CHEMBL1140846, “Convenient QSAR model for predicting the complexation of structurally diverse compounds with beta-cyclodextrins” (Bioorg Med Chem, 2009).

Assay: Binding affinity to beta cyclodextrin

| SMILES | log Ks |
| --- | --- |
| CCCCn1ccnc1 | 2.19 |
| O=C(O)/C=C/c1cccc(O)c1 | 2.56 |
| COc1cc(O)cc(OC)c1 | 2.34 |
| CC(=O)OCC(=O)[C@@]1(O)CC[C@H]2[C@@H]3CCC4=CC(=O)CC[C@]4(C)[C@H]3C(=O)C[C@@]21C [CORTISONE ACETATE] | 3.62 |
| OCCCCCO [1,5-PENTANEDIOL] | 1.22 |
| CC(=O)Oc1ccc([N+](=O)[O-])cc1 [4-NITROPHENYL ACETATE] | 2.13 |
| CCOC(=O)c1ccc(O)cc1 [ETHYLPARABEN] | 3.01 |
| CC(C)Cc1cccc(O)c1 | 4.21 |
| COc1cc(NS(=O)(=O)c2ccc(N)cc2)nc(C)n1 [SULFAMETOMIDINE] | 2.33 |
| C[C@]12C=CC(=O)C=C1CC[C@H]1[C@@H]3C[C@@H](O)[C@](O)(C(=O)CO)[C@@]3(C)C[C@H](O)[C@@]12F [TRIAMCINOLONE] | 3.37 |
| CCC(=O)c1ccc(O)cc1 [PAROXYPROPIONE] | 2.63 |
| CN1CCN=C(c2ccccc2)c2cc(Cl)ccc21 [MEDAZEPAM] | 2.4 |
| CN1C(=O)NC(=O)C(C)(C2=CCCCC2)C1=O (stereo not given) [HEXOBARBITAL] | 3.08 |
| CC(C)CC(C)O (stereo not given) | 2.04 |
| CCCC(C)C1(CC)C(=O)NC(=S)NC1=O (stereo not given) [THIOPENTAL] | 3.28 |
| OC1CCCCC1 [CYCLOHEXANOL] | 2.67 |
| CCCCOC(=O)c1ccc(O)cc1 [BUTYLPARABEN] | 3.39 |
| Nc1ccc(S(=O)(=O)Nc2ccccn2)cc1 [SULFAPYRIDINE] | 2.7 |
| c1ccccc1 [BENZENE] | 2.23 |
| CC(C)(C)O [TERT-BUTANOL] | 1.68 |
| c1ccc2scnc2c1 [BENZO[D]THIAZOLE] | 2.38 |
| CC(=O)Oc1ccc(Cl)cc1 | 2.5 |
| COc1cc(NS(=O)(=O)c2ccc(N)cc2)nc(OC)n1 [SULFADIMETHOXINE] | 2.26 |
| CC(C)(C)c1cccc(O)c1 | 4.41 |
| CCCC(=O)O[C@]1(C(=O)CO)CC[C@H]2[C@@H]3CCC4=CC(=O)CC[C@]4(C)[C@H]3[C@@H](O)C[C@@]21C [HYDROCORTISONE BUTYRATE] | 3.23 |
| CC(=O)c1ccc(S(=O)(=O)NC(=O)NC2CCCCC2)cc1 [ACETOHEXAMIDE] | 2.94 |
| OC1CCCCCCC1 [CYCLOOCTANOL] | 3.3 |

| SMILES | log Ks |
| --- | --- |
| O=C(O)CCC(=O)c1ccc(-c2ccccc2)cc1 [FENBUFEN] | 2.63 |
| c1ccc2c(c1)Nc1ccccc1O2 [PHENOXAZINE] | 2.69 |
| CC(=O)Oc1ccc(C)cc1 | 2.49 |
| C[C@H](CCC(=O)O)[C@H]1CC[C@H]2[C@@H]3[C@H](O)C[C@@H]4C[C@H](O)CC[C@]4(C)[C@H]3CC[C@]12C [CHENODIOL] | 4.36 |
| C[C@]12CCC(=O)C=C1CC[C@@H]1[C@@H]2C(=O)C[C@@]2(C)[C@H]1CC[C@]2(O)C(=O)CO [CORTISONE] | 3.35 |
| OCCCCO [1,4-BUTANEDIOL] | 0.64 |
| OCc1ccccc1 [BENZYL ALCOHOL] | 1.71 |
| Brc1ccccc1 [BROMOBENZENE] | 2.5 |
| COC(=O)c1ccccc1 [METHYL BENZOATE] | 2.5 |
| CCCCOC(=O)c1ccc(N)cc1 [BUTAMBEN] | 3.19 |
| Nc1ccc(S(=O)(=O)Nc2ccnn2-c2ccccc2)cc1 [SULFAPHENAZOLE] | 2.35 |
| CNc1ccccc1 | 2.12 |
| CC(C)CCO [3-METHYLBUTANOL] | 2.25 |
| CCc1cccc(O)c1 | 2.6 |
| c1ccc(Cn2ccnc2)cc1 [BENZYLIMIDAZOLE] | 2.61 |
| CC1(C)O[C@@H]2C[C@H]3[C@@H]4C[C@H](F)C5=CC(=O)C=C[C@]5(C)[C@@]4(F)[C@@H](O)C[C@]3(C)[C@]2(C(=O)CO)O1 [FLUOCINOLONE ACETONIDE] | 3.48 |
| CC(C)c1cccc(O)c1 | 3.44 |
| Nc1ccc([N+](=O)[O-])cc1 [4-NITROANILINE] | 2.48 |
| C[C@@H]1C[C@H]2[C@@H]3C[C@H](F)C4=CC(=O)C=C[C@]4(C)[C@H]3[C@@H](O)C[C@]2(C)[C@@]1(O)C(=O)CO [PARAMETHASONE] | 3.4 |
| CC(=O)Nc1ccccc1 [ACETANILIDE] | 2.2 |
| OC1CCCC1 [CYCLOPENTANOL] | 2.08 |
| CCCC(C)O (stereo not given) [2-PENTANOL] | 1.49 |
| C[C@H]1C[C@H]2[C@@H]3CCC4=CC(=O)C=C[C@]4(C)[C@@]3(F)[C@@H](O)C[C@]2(C)[C@@]1(O)C(=O)CO [BETAMETHASONE] | 3.73 |
| Fc1ccccc1 [FLUOROBENZENE] | 1.96 |
| Oc1ccc(Cl)cc1 [PARACHLOROPHENOL] | 2.61 |
| CCC(C)(C)O [AMYLENE HYDRATE] | 1.91 |
| CCCc1ccc(O)cc1 | 3.55 |

| SMILES | log Ks |
| --- | --- |
| COc1ccccc1 [ANISOLE] | 2.32 |
| CCCCCCCCO [OCTANOL] | 3.17 |
| CN1C(=O)CN=C(c2ccccc2F)c2cc(Cl)ccc21 [FLUDIAZEPAM] | 2.33 |
| CO [METHYL ALCOHOL] | -0.49 |
| OC1CCCCCC1 [CYCLOHEPTANOL] | 3.23 |
| CC(=O)S[C@@H]1CC2=CC(=O)CC[C@]2(C)[C@H]2CC[C@@]3(C)[C@@H](CC[C@@]34CCC(=O)O4)[C@H]12 [SPIRONOLACTONE] | 4.44 |
| CCC1(CC)C(=O)NC(=O)NC1=O [BARBITAL] | 1.78 |
| ClCc1ccccc1 [(CHLOROMETHYL)BENZENE] | 2.45 |
| CC(=O)Oc1cccc(CC(C)C)c1 | 3.83 |
| CC(=O)Oc1cccc(I)c1 | 3.07 |
| Oc1ccc(O)cc1 [HYDROQUINONE] | 2.05 |
| c1ccc2sccc2c1 [BENZOTHIOPHENE] | 3.23 |
| O=[N+]([O-])c1ccc(O)cc1 [P-NITROPHENOL] | 2.39 |
| Cc1ccc(O)cc1 [p-CRESOL] | 2.4 |
| CCCCCO [1-PENTANOL] | 1.8 |
| CCc1cccc(OC(C)=O)c1 | 2.68 |
| CC(C)c1ccc(O)cc1 | 3.58 |
| C[C@H](CCC(=O)O)[C@H]1CC[C@H]2[C@@H]3C(=O)C[C@@H]4CC(=O)CC[C@]4(C)[C@H]3CC(=O)[C@]12C [DEHYDROCHOLIC ACID] | 3.38 |
| CC(=O)OCC(=O)[C@@]1(O)CC[C@H]2[C@@H]3CCC4=CC(=O)CC[C@]4(C)[C@H]3[C@@H](O)C[C@@]21C [HYDROCORTISONE ACETATE] | 3.51 |
| O=C(O)c1ccccc1Nc1ccccc1 [FENAMIC ACID] | 2.89 |
| Cc1ccc(C)cc1 [P-XYLENE] | 2.38 |
| CCC(C)CO (stereo not given) | 2.08 |
| c1ccc2c(c1)[nH]c1ccccc12 [CARBAZOLE] | 2.44 |
| NS(=O)(=O)c1cc2c(cc1Cl)NCNS2(=O)=O [HYDROCHLOROTHIAZIDE] | 1.76 |
| N#Cc1ccccc1 [BENZONITRILE] | 2.23 |
| CCCOC/C(=N\c1ccc(Cl)cc1C(F)(F)F)n1ccnc1 [TRIFLUMIZOLE] | 2.66 |
| CC(=O)Oc1cccc(Br)c1 | 2.67 |

| SMILES | log Ks |
| --- | --- |
| C[C@H](CCC(=O)O)[C@H]1CC[C@H]2[C@@H]3[C@H](O)C[C@@H]4C[C@H](O)CC[C@]4(C)[C@H]3C[C@H](O)[C@]12C [CHOLIC ACID] | 3.5 |
| COc1ccc(O)cc1 [MEQUINOL] | 2.21 |
| CCC(C)c1cccc(O)c1 (stereo not given) | 4.06 |
| CCCc1cccc(OC(C)=O)c1 | 3.28 |
| Cc1noc(NS(=O)(=O)c2ccc(N)cc2)c1C [SULFISOXAZOLE] | 2.32 |
| OC[C@H](O)COCc1ccccc1 | 2.11 |
| CC(C)=O [ACETONE] | 0.42 |
| O=C(O)c1ccc([N+](=O)[O-])cc1 [4-NITROBENZOIC ACID] | 2.34 |
| Oc1ccc(F)cc1 | 1.73 |
| O=C(O)c1ccccc1 [BENZOIC ACID] | 2.12 |
| CC(=O)Oc1ccc(I)cc1 | 3 |
| c1ccc2c(c1)Cc1ccccc1O2 [XANTHENE] | 2.71 |
| COc1cccc(O)c1 [1-hydroxy-3-methoxybenzene] | 2.11 |
| CCCCC[C@H](O)/C=C/[C@@H]1[C@H]2C/C(=C/CCCC(=O)O)O[C@H]2C[C@H]1O [EPOPROSTENOL] | 2.94 |
| c1ccc2c(c1)oc1ccccc12 [DIBENZOFURAN] | 2.97 |
| c1ccc2nc3ccccc3nc2c1 [PHENAZINE] | 2.41 |
| Oc1cccc(Cl)c1 | 2.28 |
| COCCO [2-METHOXYETHANOL] | 0.22 |
| CCC(C)O (stereo not given) [BUTANOL] | 1.19 |
| CCCCCc1ccc(O)cc1 | 4.19 |
| CCOc1cccc(OC(C)=O)c1 | 2.49 |
| CCC(C)(O)CC | 2.15 |
| Oc1ccccc1 [PHENOL] | 1.98 |
| CC(C(=O)O)c1cccc(C(=O)c2ccccc2)c1 (stereo not given) [KETOPROFEN] | 2.85 |
